Assay results taken from PMC5777145 (Analytical chemistry, 2017).
“Also recorded” adds a separate entry of the source.

How the values were obtained:
[1] = system: salmon testes DNA
[2] = system: cyt P450s; test: Mass spectrometry of metabolites after incubation with cyt P450s, NADPH and Cu2+; type: in vitro ADME; details: positive-ion electrospray MS
[3] = system: DNA; details: cited from earlier work
[4] = system: salmon testes DNA; details: for ECL intensity vs enzyme reaction time, DNA oxidation (8-oxodG): 3 mM 4ABP, AF or anisidine, 5 mM NA, pH 7.4 + NADPH regenerating system + Cu2+, different cyt P450 sources, ECL at 0.7 V
[5] = rodent TD50, Comet assay; cited from earlier work
[6] = ref International Agency for Research on Cancer (IARC); cited from earlier work

SMILES | order of relative DNA adduction rate [1] | relative turnover rate R, DNA adduction (level in words) ([1]; array R values) | influence of cyt P450 source on relative DNA adduction rate ([1]; human, rat (enzyme sources), salmon (DNA)) | metabolites found [2] | major DNA adduct found [3] | relative turnover rate R, DNA oxidation (level in words) [4] | ECL intensity vs enzyme reaction time, DNA oxidation (8-oxodG) [4] | influence of cyt P450 source on relative DNA oxidation rate ([4]; human, rat (enzyme sources), salmon (DNA), pH 7.4) | order of relative DNA oxidation rates ([4]; pH 7.4) | toxicity by conventional bioassays [5] | carcinogen classification [6]
Nc1ccc2ccccc2c1 [NA, 2-naphthylamine] | 4-ABP > AF > anisidine > NA | smaller R values | Supersome 1A2 had the largest relative DNA oxidation and adduction rates | hydronitroxide radical; also recorded: nitroso naphthalene | N-(2′-deoxyguanosin-8-yl)-2-naphthylamine | smaller R values | increases in ECL with reaction time | Supersome 1A2 had the largest relative DNA oxidation and adduction rates | 4-ABP > AF ≈ anisidine > NA | relative lower levels of toxicity | –
Nc1ccc(-c2ccccc2)cc1 [4ABP, 4-Aminobiphenyl] | – | – | – | – | N-(2′-deoxyguanosin-8-yl)-4-aminobiphenyl | – | increase in ECL intensity with reaction time | – | – | – | group I carcinogen
Nc1ccc2c(c1)Cc1ccccc1-2 [AF, 2-aminofluorene] | – | – | – | – | – | – | increases in ECL with reaction time | – | – | – | –
COc1ccccc1N [anisidine, o-anisidine] | – | – | – | o-aminophenol | N-(2′-deoxyguanosin-8-yl)-2-methoxyaniline | – | increases in ECL with reaction time | – | – | – | group 2B carcinogen
